Experiments:
RNase L [1] = molecular target: T1, RNase L (Homo sapiens, UniProt Q05823); test: RNA sequencing of RNase L cleavage products in permeabilized T47D cells stimulated with 2-5A; type: cell-based; parameters: endogenous in cells; conditions: 1 μM 2-5A for 3 minutes compared with 1 minute
T1 sequence (Q05823 1-741): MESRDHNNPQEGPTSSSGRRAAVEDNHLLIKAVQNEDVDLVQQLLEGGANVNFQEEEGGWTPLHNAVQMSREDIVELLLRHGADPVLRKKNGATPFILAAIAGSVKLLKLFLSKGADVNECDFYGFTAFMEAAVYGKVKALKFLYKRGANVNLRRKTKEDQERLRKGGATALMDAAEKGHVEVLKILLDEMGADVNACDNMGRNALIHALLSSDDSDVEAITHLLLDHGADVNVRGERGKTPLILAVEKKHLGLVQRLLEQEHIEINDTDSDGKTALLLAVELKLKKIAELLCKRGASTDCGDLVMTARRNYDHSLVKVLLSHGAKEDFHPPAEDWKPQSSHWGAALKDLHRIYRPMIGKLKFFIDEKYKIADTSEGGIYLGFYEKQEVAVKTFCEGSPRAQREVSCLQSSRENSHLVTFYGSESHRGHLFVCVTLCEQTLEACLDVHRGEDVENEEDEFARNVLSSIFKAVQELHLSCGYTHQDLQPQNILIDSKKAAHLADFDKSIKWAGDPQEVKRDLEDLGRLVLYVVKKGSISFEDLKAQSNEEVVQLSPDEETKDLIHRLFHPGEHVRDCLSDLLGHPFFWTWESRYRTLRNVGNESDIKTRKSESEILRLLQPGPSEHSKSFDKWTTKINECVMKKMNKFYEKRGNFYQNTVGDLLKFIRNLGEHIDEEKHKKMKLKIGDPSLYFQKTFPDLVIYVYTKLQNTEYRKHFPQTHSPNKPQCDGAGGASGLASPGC
Procedure: Initially, approximately 500 ng-1 μg miRvana purified small RNAs is ligated to the ligation adapter (5′-[…]-3′(SEQ ID NO: 1), underlined portion is RNA) using RtcB. It is contemplated that the adaptor has a 3′-desthiobiotin modification. The ligated RNAs are separated from free adapter by resolving on 10% urea PAGE by staining gel and excising all RNA larger than the free adapter. RNA is eluted from gel slices overnight at 4° C. in TE buffer pH 7.5 supplemented with 0.05% Triton X-100. Glycogen is added to RNAs and precipitated with 3 volumes of 100% ethanol and 1/10 volume 3M sodium acetate pH 5.2. The sample is then incubated on dry ice for 30 minutes. […]
Libraries are assessed on an Agilent High Sensitivity DNA chip, and equimolar amounts of libraries pooled and resolved on 6% native PAGE and visualized by gel staining. […] Libraries are now ready for sequencing on the Illumina HiSeq 2000 platform.
The RNA sequencing experiments were also carried out in HeLa cells that overexpress RNase L (RNLoe) and in T47D cells derived from human breast cancer and that have been permeablized and stimulated for 1 minute or 3 minutes with 1 μM 2-5A, which specifically activates RNase L but not other pathways. Results of the primary types of cleavage products detected, e.g., tRNA-His, tRNA-Pro, RNY1, RNY3, RNY4 and RNY5, were similar. […]

RNase L [2] = molecular target: T1, RNase L; test: qPCR detection of tRNA His-GUG-36 RNase L cleavage product in poly I:C stimulated HeLa cells; type: cell-based; parameters: endogenous in cells; host or cells: HeLa cells; conditions: total RNA, RtcB ligation, qPCR with His-GUG-36-2 primer, ΔΔCt method (FIG. 4F)
Procedure: Reaction components useful in the ligation reaction include the following: 2-500 ng purified RNA, 30 μM RtcB ligase, 1 U/μL RNase inhibitor, 10 μM ligation adapter, 100 μM GTP, 20 mM HEPES pH 7.5, 2 mM MnCl2, 110 mM NaCl, 4 mM DTT, 2.2% glycerol (carried into the reaction with RtcB and RNase inhibitor). The standard reaction volume is 10 μL with incubation for 1 hour at 37° C.
After incubation 1 μL of 33 mM EDTA is added followed by a brief room temperature incubation (usually 5-10 minutes) giving a final concentration of EDTA of 3 mM. EDTA is added to chelate Mn^2+ ions that might interfere in downstream steps as well as to stop the ligation reaction.
1 μL of EDTA quenched ligation reaction is mixed with dNTPs and 10 picomoles (pmol) of RT primer in 10 μL volume. The mixture is incubated at 65° C. for 5 minutes then placed on ice (optional). The remaining components are added for a 20 μL reverse transcription reaction: RT buffer, 0.2 U μL RNase inhibitor, Reverse transcriptase (added last), and H2O for 20 μL final volume and incubated according to the RT manufacturer's specifications. […]
For the qPCR, total purified RNA from non-stimulated and poly I:C stimulated HeLa cells was serially diluted, ligated to the adapter with RtcB, reverse transcribed, and detected by qPCR using the His-GUG-36-2 primer and qPCR reverse primer.

| Substance | RNA cleavage profile of RNase L products (RNase L [1]) | number of tRNA His-GUG-36-2 cleavage products compared to non-stimulated cells (RNase L [2]) |
| --- | --- | --- |
| 2′,5′-oligoadenylate [2-5A] | enhanced induction of RNA cleavage of the same products | – |
| polyinosinic-polycytidylic acid [polyI:C] | – | significantly increased |
